Source: patent US8071625B2, “Certain chemical entities, compositions, and methods” (Cytokinetics, Inc., priority 2006, dated 2011)

Target: T1, crosslinked smooth muscle actomyosin (chicken gizzard smooth muscle myosin subfragment-1 crosslinked to cardiac or skeletal actin) (Gallus gallus, UniProt P10587)
T1 construct: chicken gizzard smooth muscle myosin subfragment-1; from tissue; host or cells: chicken gizzard
Assay: Lead optimization pyruvate kinase/horseradish peroxidase/pyruvate oxidase-coupled ATPase assay (compound dose response)
Assay type: biochemical
Settings: read-out: IC50 Arithmetic Mean
Summary of the method: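 IC50 is the midpoint of a 4-parameter dose–response fit of Amplex Red fluorescence (480/615 nm). Buffer was 12 mM potassium PIPES pH 7.00 at 22 °C with 100 mM KCl, 2 mM MgCl2, 0.15 mM ATP and 2 mM phosphate, with PK/pyruvate oxidase/HRP coupling. Enzyme: smooth muscle myosin S1 crosslinked to cardiac or skeletal actin, dosed empirically by activity.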

Compound: CCc1ccc(NC(=O)OCC2(C(=O)NCc3ccccc3C(F)(F)F)CCN(C(=O)CN)CC2)cc1 [{[1-(2-aminoacetyl)-4-(N-{[2-(trifluoromethyl)phenyl]methyl}carbamoyl)(4-piperidyl)]methoxy}-N-(4-ethylphenyl)carboxamide]
- IC50: 86 nM

Compound: CCc1ccc(NC(=O)OCC2(C(=O)NCc3ccc(C(F)(F)F)cc3F)CCN(C(=O)CN)CC2)cc1 [{[1-(2-aminoacetyl)-4-(N-{[2-fluoro-4-(trifluoromethyl)phenyl]methyl}carbamoyl)(4-piperidyl)]methoxy}-N-(4-ethylphenyl)carboxamide]
- IC50: 11800 nM

Compound: CCc1ccc(NC(=O)OCCN(C)C(=O)NCc2cccc(Cl)c2Cl)cc1 [{[(2,3-dichlorophenyl)methyl]amino}-N-{2-[N-(4-ethylphenyl)carbamoyloxy]ethyl}-N-methylcarboxamide]
- IC50: 59 nM

Compound: CN(CCOC(=O)Nc1ccc2ccccc2c1)C(=O)NCc1ccccc1Cl [{[(2-chlorophenyl)methyl]amino}-N-methyl-N-[2-(N-(2-naphthyl)carbamoyloxy)ethyl]carboxamide]
- IC50: 30 nM

Compound: CN(CCOC(=O)Nc1ccc2ncccc2c1)C(=O)NCc1ccccc1Cl [{[(2-chlorophenyl)methyl]amino}-N-methyl-N-[2-(N-(6-quinolyl)carbamoyloxy)ethyl]carboxamide]
- IC50: 1410 nM

Compound: CN(CCOC(=O)Nc1ccc(-c2ccccc2)cc1)C(=O)NCc1ccccc1Cl [{[(2-chlorophenyl)methyl]amino}-N-methyl-N-{2-[N-(4-phenylphenyl)carbamoyloxy]ethyl}carboxamide]
- IC50: 248 nM

Compound: CCc1ccc(NC(=O)OCC(C)(C)N(C)C(=O)NCc2ccccc2Cl)cc1 [{[(2-chlorophenyl)methyl]amino}-N-{2-[N-(4-ethylphenyl)carbamoyloxy]-tert-butyl}-N-methylcarboxamide]
- IC50: 621 nM

Compound: CCc1ccc(NC(=O)OCCN(CCCCO)C(=O)NCc2ccccc2Cl)cc1 [{[(2-chlorophenyl)methyl]amino}-N-{2-[N-(4-ethylphenyl)carbamoyloxy]ethyl}-N-(4-hydroxybutyl) carboxamide]
- IC50: 355 nM

Compound: CCc1ccc(NC(=O)OCCN(CCNC)C(=O)NCc2ccccc2Cl)cc1 [{[(2-chlorophenyl)methyl]amino}-N-{2-[N-(4-ethylphenyl)carbamoyloxy]ethyl}-N-[2-(methylamino)ethyl]carboxamide]
- IC50: 16300 nM

Compound: CCc1ccc(NC(=O)OCCN(C)C(=O)NCc2ccccc2Cl)cc1 [{[(2-chlorophenyl)methyl]amino}-N-{2-[N-(4-ethylphenyl)carbamoyloxy]ethyl}-N-methylcarboxamide]
- IC50: 84 nM

Compound: CCc1ccc(NC(=O)OCCCN(C)C(=O)NCc2ccccc2Cl)cc1 [{[(2-chlorophenyl)methyl]amino}-N-{3-[N-(4-ethylphenyl)carbamoyloxy]propyl}-N-methylcarboxamide]
- IC50: 1670 nM

Compound: CCc1ccc(NC(=O)OCCCCN(C)C(=O)NCc2ccccc2Cl)cc1 [{[(2-chlorophenyl)methyl]amino}-N-{4-[N-(4-ethylphenyl)carbamoyloxy]butyl}-N-methylcarboxamide]
- IC50: 6070 nM

Compound: CCc1ccc(NC(=O)OCCN(C)C(=O)N(C)Cc2ccccc2Cl)cc1 [{[(2-chlorophenyl)methyl]methylamino}-N-{2-[N-(4-ethylphenyl)carbamoyloxy]ethyl}-N-methylcarboxamide]
- IC50: 2080 nM

Compound: (tert-butoxy)-N-[2-(3-{N-[(2-chlorophenyl)methyl]carbamoyl}-3-{[N-(4-ethylphenyl)carbamoyloxy]methyl}piperidyl)-2-oxoethyl]carboxamide
- IC50: 1430 nM

Compound: methyl (3S)-3-amino-4-(4-{N-[(2-chlorophenyl)methyl]carbamoyl}-4-{[N-(4-ethylphenyl)carbamoyloxy]methyl}piperidyl)-4-oxobutanoate
- IC50: 1120 nM

Compound: tert-butyl 4-[(4-{N-[(2-chlorophenyl)methyl]carbamoyl}-4-{[N-(4-ethylphenyl)carbamoyloxy]methyl}piperidyl)carbonyl]piperidinecarboxylate
- IC50: 3550 nM
